According to EP4806435A1, “DIHYDROCHROMENE-DERIVATIVE-CONTAINING THERAPEUTIC AGENT FOR CANCER” (Sumitomo Pharma Co., Ltd., priority 2023, dated 2025):
Like-named read-outs stand apart in the source and are kept apart here.

Experiment: Phase 1 clinical trial: plasma pharmacokinetics
Format: in vivo, human
Conditions: for Tmax / half-life / Cmax / AUC / AUC(0-t): human, plasma, oral; for half-life: read-out: Effective T1/2 (converted)
Description: Summary statistics based on preliminary data were obtained for the pharmacokinetics of Compound 1 in patients receiving once-daily doses ranging from 20 mg to 240 mg (Table 5). The mean plasma concentration-time curves of Compound 1 in the once-daily dose groups ranging from 20 mg to 240 mg are shown in Figure 11. In this study, one cycle consists of 28 days, and Cycle 1 Day 1 refers to Day 1 of the first cycle. […] Accumulation was observed after repeated administration. […] Based on these accumulation ratios, the half-life of Compound 1 was estimated to be approximately 4 days. Based on the currently available data, plasma concentrations are considered to have reached steady state by Day 15.
Summary statistics based on preliminary data were obtained for the pharmacokinetics of Compound 1 in patients in the 20 mg QD, 40 mg QD, 80 mg QD, 120 mg QD, 180 mg QD, 240 mg QD, 360 mg QD, and 480 mg daily (240 mg BID) dose groups (Table 6). The mean plasma concentration-time curves of Compound 1 in the 20 mg QD to 480 mg daily (240 mg BID) dose groups are shown in Figure 12 (in Figure 12, Compound 1 is denoted as "DSP-0390"). In this study, one cycle consists of 28 days, and Cycle 1 Day 1 refers to Day 1 of the first cycle. […] The median Tmax ranged from 2 to 8 hours. Accumulation was observed after repeated administration, and assuming linearity based on the observed accumulation ratios, the estimated elimination half-life was considered to be on the order of several days (approximately 1 to 6 days) (data cut-off: March 2024).

[1] = repeated administration, 20 mg to 240 mg once daily, cut-off April 2023

CC1(C)Oc2cc(Cl)ccc2[C@@H]2OCC3(CCN(CCn4ccnc4)CC3)C[C@H]21 [Compound 1, (4'aR,10'bR)-8'-chloro-1-[2-(1H-imidazol-1-yl)ethyl]-5',5'-dimethyl-4'a,10'b-dihydro-2'H,4'H,5'H-spiro[piperidine-4,3'-pyrano[3,2-c][1]benzopyran] diphosphate] showed a Tmax (180 mg, Cycle 2 Day 1, 180 mg, QD, cut-off April 2023, read-out: Tmax (median)) of 7 h, a half-life (240 mg, 240 mg QD, cut-off March 2024) of 45.6 h and a half-life (240 mg, 480 mg (240 mg BID), cut-off March 2024) of 16.8 h. For the same compound, the Cmax (240 mg, Cycle 1, Day 1, 240 mg QD, cut-off March 2024, read-out: Cmax) was 177 ng/mL, the Tmax (240 mg, Cycle 1, Day 1, 240 mg QD, cut-off March 2024, read-out: Tmax [a] median value) was 2 h and the AUC (240 mg, Cycle 1, Day 1, 240 mg QD, tau = 24 hours, cut-off March 2024, read-out: AUCtau [b]) was 1620 ng·h/mL. For the same compound, the Cmax (240 mg, Cycle 1, Day 1, 480 mg (240 mg BID), cut-off March 2024, read-out: Cmax) was 143 ng/mL, the Tmax (240 mg, Cycle 1, Day 1, 480 mg (240 mg BID), cut-off March 2024, read-out: Tmax [a] median value) was 4 h and the AUC (240 mg, Cycle 1, Day 1, 480 mg (240 mg BID), n=1, tau = 12 hours, cut-off March 2024, read-out: AUCtau [b]) was 1980 ng·h/mL. The AUC(0-t) (240 mg, Cycle 1 Day 1, 240 mg, QD, cut-off April 2023, read-out: AUC0-24 (geometric mean)) was 1480 ng·h/mL, the AUC(0-t) (240 mg, Cycle 1 Day 1, 240 mg, QD, cut-off April 2023, read-out: AUC0-24 (mean)) was 1510 ng·h/mL and the AUC(0-t) (240 mg, Cycle 1 Day 1, 240 mg, QD, cut-off April 2023, read-out: AUC0-24 (median)) was 1620 ng·h/mL. The Cmax (240 mg, Cycle 1 Day 1, 240 mg, QD, cut-off April 2023, read-out: Cmax (geometric mean)) was 145 ng/mL, the Cmax (240 mg, Cycle 1 Day 1, 240 mg, QD, cut-off April 2023, read-out: Cmax (mean)) was 153 ng/mL and the Cmax (240 mg, Cycle 1 Day 1, 240 mg, QD, cut-off April 2023, read-out: Cmax (median)) was 148 ng/mL. The Tmax (240 mg, Cycle 1 Day 1, 240 mg, QD, cut-off April 2023, read-out: Tmax (mean)) was 3 h, the Tmax (240 mg, Cycle 1 Day 1, 240 mg, QD, cut-off April 2023, read-out: Tmax (median)) was 2 h and the Cmax (240 mg, Cycle 2, Day 1, 240 mg QD, cut-off March 2024, read-out: Cmax,ss) was 316 ng/mL. The Tmax (240 mg, Cycle 2, Day 1, 240 mg QD, cut-off March 2024, read-out: Tmax,ss [a] median value) was 5 h, the AUC (240 mg, Cycle 2, Day 1, 240 mg QD, tau = 24 hours, cut-off March 2024, read-out: AUCtau,ss [b]) was 5330 ng·h/mL and the Cmax (240 mg, Cycle 2, Day 1, 480 mg (240 mg BID), cut-off March 2024, read-out: Cmax,ss) was 346 ng/mL. The Tmax (240 mg, Cycle 2, Day 1, 480 mg (240 mg BID), cut-off March 2024, read-out: Tmax,ss [a] median value) was 7 h, the AUC (240 mg, Cycle 2, Day 1, 480 mg (240 mg BID), n=1, tau = 12 hours, cut-off March 2024, read-out: AUCtau,ss [b]) was 3180 ng·h/mL and the AUC(0-t) (240 mg, Cycle 2 Day 1, 240 mg, QD, N=1, cut-off April 2023, read-out: AUC0-24 (geometric mean)) was 6670 ng·h/mL. The AUC(0-t) (240 mg, Cycle 2 Day 1, 240 mg, QD, N=1, cut-off April 2023, read-out: AUC0-24 (mean)) was 6670 ng·h/mL, the AUC(0-t) (240 mg, Cycle 2 Day 1, 240 mg, QD, N=1, cut-off April 2023, read-out: AUC0-24 (median)) was 6670 ng·h/mL and the Cmax (240 mg, Cycle 2 Day 1, 240 mg, QD, cut-off April 2023, read-out: Cmax (geometric mean)) was 359 ng/mL. It also gave a Cmax (240 mg, Cycle 2 Day 1, 240 mg, QD, cut-off April 2023, read-out: Cmax (mean)) of 360 ng/mL, a Cmax (240 mg, Cycle 2 Day 1, 240 mg, QD, cut-off April 2023, read-out: Cmax (median)) of 360 ng/mL and a Tmax (240 mg, Cycle 2 Day 1, 240 mg, QD, cut-off April 2023, read-out: Tmax (mean)) of 7 h. For the same compound, the Tmax (240 mg, Cycle 2 Day 1, 240 mg, QD, cut-off April 2023, read-out: Tmax (median)) was 7 h, the half-life (360 mg, 360 mg QD, cut-off March 2024) was 24 h and the Cmax (360 mg, Cycle 1, Day 1, 360 mg QD, cut-off March 2024, read-out: Cmax) was 359 ng/mL. The Tmax (360 mg, Cycle 1, Day 1, 360 mg QD, cut-off March 2024, read-out: Tmax [a] median value) was 4 h, the AUC (360 mg, Cycle 1, Day 1, 360 mg QD, tau = 24 hours, cut-off March 2024, read-out: AUCtau [b]) was 4110 ng·h/mL and the Cmax (360 mg, Cycle 2, Day 1, 360 mg QD, cut-off March 2024, read-out: Cmax,ss) was 489 ng/mL. The Tmax (360 mg, Cycle 2, Day 1, 360 mg QD, cut-off March 2024, read-out: Tmax,ss [a] median value) was 4 h, the AUC (360 mg, Cycle 2, Day 1, 360 mg QD, tau = 24 hours, cut-off March 2024, read-out: AUCtau,ss [b]) was 8490 ng·h/mL and the AUC(0-t) (Cycle 1 Day 1, 20 mg to 240 mg once daily, cut-off April 2023, read-out: geometric mean of AUC0-24, range over all dose groups) was 76 to 1480 ng·h/mL. It also gave a Cmax (Cycle 1 Day 1, 20 mg to 240 mg once daily, cut-off April 2023, read-out: geometric mean of Cmax, range over all dose groups) of 4 to 145 ng/mL, a Tmax (Cycle 1 Day 1, 20 mg to 240 mg once daily, cut-off April 2023, read-out: median Tmax, range over all dose groups) of 2 to 8 h and an AUC(0-t) (Cycle 2 Day 1, 20 mg to 240 mg once daily, cut-off April 2023, read-out: geometric mean of AUC0-24, range over all dose groups) of 556 to 6670 ng·h/mL. The Cmax (Cycle 2 Day 1, 20 mg to 240 mg once daily, cut-off April 2023, read-out: geometric mean of Cmax, range over all dose groups) was 27.7 to 359 ng/mL, the Tmax (Cycle 2 Day 1, 20 mg to 240 mg once daily, cut-off April 2023, read-out: median Tmax, range over all dose groups) was 2 to 7 h and the “plasma concentrations reached steady state” value (once-daily dosing, cut-off April 2023) was at most 15 days. The “dose dependence of exposure” value (range of 20 mg to 360 mg QD) was “increased in a dose-dependent manner”, the “mean accumulation ratio for AUC0-24, range over dose groups” value [1] was 3.9-8.6 and the “mean accumulation ratio for Cmax, range over dose groups” value [1] was 2.6-6.2.
